Laboratory results reported in US6897316B2, “Substituted 2-phenyl-4-quinolone-3-carboxylic acid compounds and their use as antitumor agents” (China Medical University, priority 2003, dated 2005).
≈ marks a conversion by molar mass, not a printed value.

Key:
[1] = tested on: melanoma (SK-MEL-2) cell line; test: Activity against HTCL replication, SK-MEL-2; assay type: cell-based, human; settings: mean ED50
Procedure: Compounds were assayed for in vitro cytotoxicity in a panel of human tumor cell lines at the School of Pharmacy, University of North Carolina at Chapel Hill, according to procedures described previously [Lee, K. H., Lin, Y. M., Wu, T. S., Zhang, D. C., Yamagishi, T., Hayashi, T., Hall, I. H., Chang, J. J., Wu, R. Y., Yang, T. H. The cytotoxic principles of Prunella vulgaris, Psychotria serpens, and Hyptis capitata: Ursolic acid and related derivatives. Planta Med. 1988, 54, 308-11; Boyd, M. R. Status of the National Cancer Institute preclinical antitumor drug discovery screen: implications for selection of new agents for clinical trial. Devita, V. T., Jr. Hellman, S., Rosenberg, S. A., Eds, J. B. Cancer: Principles and Practice of Oncology Update, 1989, 3: pp1-12, Lippincoft: Philadephia; Monks, A., Scudiero, D., Skehan, P., Shoemaker, R., Paull, K., Vistica, D., Hose, C., Langley, J., Cronise, P., Vaigro-Wolff, A., Gray-Goodrich, M., Campbell, H., Mayo, J., Boyd, M. Feasibility of a high-flux anticancer drug screen using a diverse panel of cultured human tumor cell lines. J. Natl. Cancer Inst. 1991, 83, 757-66.] […]

HGC2998 (colon cancer) = test: Growth inhibition in human cancer cell line panel, HGC2998; assay type: cell-based; settings: 48 hr, SRB
Procedure: Compound IX-8 was evaluated growth inhibition activities against a panel of 39 human cancer cell lines including Human breast cancer MDA-MB-231 and the following human cancer cell lines were generously distributed by the National Cancer Institute (Frederick, Md.): lung cancer, NCI-H23, NCI-H226, NCI-H522, NCI-H460, A-549, DMS273 and DMS114; colon cancer, HGC-2998, KM-12, HT-29, HCT-15, and HCT-116; ovarian cancer, OVCAR-3, OVCAR-4, OVCAR-5, OVCAR-8, and SKOV-3; breast cancer, MCF-7; renal cancer, RXF-631L and ACHN; melanoma, LOX-IMVI; brain tumor, U251, SF-295, SF-539, SF-268, SNB-75, and SNB-78, and prostate cancer, DU-145 and PC-3. […]
The details of measuring cell growth inhibition are described elsewhere [Monks, A., Scudiero, D., Skehan, P., Shoemaker, R., Paull, K., Vistica, D., Hose, C., Langley, J., Cronise, P., Vaigro-Wolff, A., Gray-Goodrich, M., Campbell, H., Mayo, J., Boyd, M. Feasibility of a high-flux anticancer drug screen using a diverse panel of cultured human tumor cell lines. […] Then, the cell growth was determined according to the Sulforhodamine B assay, described by Skehan et al [Skehan, P., Storeng, R., Scudiero, D., Monks, A., McMahon, J., Vistica, D., Warren, J. T., Bokesch, H., Kenney, S., Boyd, M. R. New calorimetric cytotoxicity assay for anticancer-drug screening. […]

- GI50 (HGC2998 (colon cancer)): 138 nM
Structure (SMILES): COc1ccc2[nH]c(-c3cccc(F)c3)c(C(=O)O)c(=O)c2c1 [IX-8, 3′-Fluoro-6-methoxy-2-phenyl-4-quinolone-3-carboxylic acid]
- ED50 SK-MEL-2 [1]: 0.16 µg/mL (≈ 0.511 µM)
